Laboratory results reported in patent publication US20130337564A1, “Treatment of Pluripotent Cells” (Janssen Biotech, Inc., priority 2012, published 2013).

Experiments:
[1] = system: human embryonic stem cells (H9 line); assay: High content screening assay: cell number (proliferative response); assay type: cell-based; details: for fold induction at 10 µM: Homo sapiens, Embryonic stem cell, 10 μM test compound with 100 ng/ml activin A on days 1-2, H9, total cell number by IN Cell Analyzer, strong and moderate hits, read-out: Proliferative Response, Fold over Wnt 3a/AA control
Summary of the method: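 H9 hESCs on MATRIGEL treated days 1-2 with 10 μM compound in DMEM:F12, 0.5% FCS, 100 ng/ml activin A; days 3-4 with 2% FCS plus activin A without compound. Fixed cells immunostained for Sox17 or HNF-3beta with Draq5 nuclear counterstain. Cell number and staining intensity quantified by high-content imaging, 12 fields/well.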

[2] = MTS viability (toxicity) assay of cells expressing pluripotency markers; assay type: cell-based, human; parameters: Raw data (duplicate), first replicate / Average: unit not given here; details: human, MTS on day 4, relative to Activin A + Wnt3a positive control, read-out: % Control (percentage viability of control); for viability at 4 days, 2.5 μM: cmpd conc 2.5 μM; for viability at 4 days, 5 μM: cmpd conc 5 μM; for viability at 4 days, 10 μM: cmpd conc 10 μM
Summary of the method: (§1)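 Cells expressing pluripotency markers, derived from human embryonic stem cells, were plated at 20,000 cells per well in 96-well clear-bottom plates and cultured overnight. Test compounds were applied in assay medium on days 1 and 2, and compound-free medium on days 3 and 4. On day 4, MTS was added and optical density at 490 nm was read in duplicate.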

[3] = system: cells expressing pluripotency markers derived from human embryonic stem cells; assay: as above; assay type: cell-based; parameters: Raw data (duplicate), first replicate / Average: unit not given here; details: for viability at 10 µM: Homo sapiens, Embryonic stem cell, viability of cells expressing pluripotency markers, relative to control; for Raw data (duplicate), first replicate / Raw data (duplicate), second replicate: MTS viability assay raw reading; for Raw data (duplicate), first replicate: replicate 1; for Raw data (duplicate), second replicate: replicate 2; for Average: average of duplicate MTS raw readings; for Average of raw data (duplicate), optical density at 490 nm: MTS on day 4
Summary of the method: as §1

[4] = cell number in the wells analysed for HNF-3b expression
[5] = cell number in the wells analysed for SOX-17 expression

CC(C)(O)CCn1nc(C2=C(c3cn(-c4cccnc4)c4ccccc34)C(=O)NC2=O)c2ccccc21 [Compound 223, 3-[1-(3-Hydroxy-3-methylbutyl)-1H-indazol-3-yl]-4-(1-pyridin-3-yl-1H-indol-3-yl)-1H-pyrrole-2,5-dione]
fold induction at 10 µM [1]: 0.948 | Proliferative Response Total cells [1, 4]: 9871 | Proliferative Response Total cells [1, 5]: 14529 | viability at 4 days, 2.5 μM [2]: 99.6% | viability at 4 days, 5 μM [2]: 93.9% | viability at 4 days, 10 μM [2]: 83.7% | viability at 10 µM [3]: 97.8% | Raw data (duplicate), first replicate [3]: 0.770 | Raw data (duplicate), second replicate [3]: 0.786 | Average [3]: 0.778 | Average of raw data (duplicate), optical density at 490 nm ([3]; cmpd conc 2.5 μM): 0.8427 | Average of raw data (duplicate), optical density at 490 nm ([3]; cmpd conc 5 μM): 0.8021 | Average of raw data (duplicate), optical density at 490 nm ([3]; cmpd conc 10 μM): 0.7287

O=C1NC(=O)C(c2nn(CCO)c3ccccc23)=C1c1cn(-c2cncnc2)c2ccccc12 [Compound 226, 3-[1-(2-Hydroxyethyl)-1H-indazol-3-yl]-4-(1-pyrimidin-5-yl-1H-indol-3-yl)-1H-pyrrole-2,5-dione]
fold induction at 10 µM [1]: 0.634 | Proliferative Response Total cells [1, 4]: 7650 | Proliferative Response Total cells [1, 5]: 9716 | viability at 4 days, 2.5 μM [2]: 86.3% | viability at 4 days, 5 μM [2]: 86.7% | viability at 4 days, 10 μM [2]: 78.9% | viability at 10 µM [3]: 83.1% | Raw data (duplicate), first replicate [3]: 0.683 | Raw data (duplicate), second replicate [3]: 0.688 | Average [3]: 0.686 | Average of raw data (duplicate), optical density at 490 nm ([3]; cmpd conc 2.5 μM): 0.7474 | Average of raw data (duplicate), optical density at 490 nm ([3]; cmpd conc 5 μM): 0.7506 | Average of raw data (duplicate), optical density at 490 nm ([3]; cmpd conc 10 μM): 0.6945

O=C1NC(=O)C2=C1Nc1cccc(c1)OCCC/C=C\CCCOc1cccc2c1 [Compound 233, (11Z)-8,9,10,13,14,15-Hexahydro-2,6:17,21-di(metheno)pyrrolo[3,4-h][1,15,7]dioxazacyclotricosine-22,24(1H,23H)-dione]
Proliferative Response Total cells [1, 4]: 4357 | Proliferative Response Total cells [1, 5]: 6470 | viability at 4 days, 2.5 μM [2]: 41.6% | viability at 4 days, 5 μM [2]: 0% | viability at 4 days, 10 μM [2]: 1.5% | viability at 10 µM [3]: 70.9% | Raw data (duplicate), first replicate [3]: 0.608 | Raw data (duplicate), second replicate [3]: 0.590 | Average [3]: 0.599 | Average of raw data (duplicate), optical density at 490 nm ([3]; cmpd conc 2.5 μM): 0.4267 | Average of raw data (duplicate), optical density at 490 nm ([3]; cmpd conc 5 μM): 0.1283 | Average of raw data (duplicate), optical density at 490 nm ([3]; cmpd conc 10 μM): 0.1391
